Entries after “also recorded” stand apart in the source; their conditions may differ.
Test: Long-term thermal stability: aging at 90° C. for 15 days, phase behavior, NMR, FTIR
Type: physicochemical
Description: The short-term thermal stability of the unsaturated surfactant was assessed using thermogravimetric analysis (TGA). The thermal stability for a longer period (2 weeks) was determined by FTIR and NMR. The synthesized unsaturated surfactant was dried and heated at 10° C./min in an SDT-Q600 instrument (TA Instruments) from room temperature to 600° C. under nitrogen atmosphere. The thermal stability for a longer period was determined by aging 1 wt % aqueous solution of the unsaturated surfactant at 90° C. for 15 days. FTIR, ^13C NMR, and ^1H NMR were used to identify the structural changes in the unsaturated surfactant after aging. A Nicolet 6700 spectrometer was used for FTIR analysis of the unsaturated surfactant, while a JEOL 500 MHz spectrometer was used for obtaining the NMR spectra.
For long-term thermal stability, 1 wt % surfactant solution was aged in sealed aging tubes at 90° C. for 15 days. […] The two methyl carbons directly attached to the quaternary nitrogen [—CH2—N^+—(CH3)2—CH2—] were detected at δ=50.8 ppm and the two methylene carbons directly attached to quaternary nitrogen [—CH2—N^+—(CH3)2—CH2—] at δ=62.2 and δ=62.7 ppm. The olefinic carbons in the unsaturated surfactant tail appeared at δ=129.6 and δ=130.0 ppm. The amide carbonyl group [—CH2—C═O—NH] resonated at δ=175.1 ppm. The peaks appearing in the ^13C-NMR spectra of the sample agreed with the proposed structure of the unsaturated surfactant. […] The carbons of two methyl groups connected with the central positively charged nitrogen [—CH2—N^+(CH3)2—CH2—] still present in the aged sample and were detected at δ=50.8 ppm. Similarly, the carbons of two methylene groups attached to the central positively charged nitrogen [—CH2—N^+(CH3)2—CH2—] were also detected at δ=62.2 and δ=62.7 ppm. […] In the ^1H-NMR spectrum of the unsaturated surfactant before aging (FIG. 5), the terminal methyl protons [—(CH2)n—CH3)] was detected at δ=0.84 ppm and the methylene protons [—(CH2)n—CH3)] in the unsaturated surfactant tail resonated at δ=1.23 ppm. […]

SMILES: CCCCCCCC/C=C\CCCCCCCC(=O)NCCC[N+](C)(C)CCCS(=O)(=O)[O-] [unsaturated surfactant, 3-(N-oleamidopropyl-N,N-dimethylammonium) propane sulfonate]
- appearance of solution after aging (1 wt % surfactant solution, sealed tubes, 90° C., 15 days): remained clear and there was no phase separation or precipitation
- long-term thermal stability (90° C., 15 days, phase behavior, TGA, FTIR, NMR): excellent long-range thermal stability
- structure after aging (1H/13C NMR, FTIR) (aged 15 days at 90° C.): survival of original structure; also recorded: no structure degradation

— patent publication US11421145B2, “Oil recovery methods using a formulation containing an unsaturated zwitterionic surfactant and a polymer” (King Fahd University of Petroleum and Minerals, priority 2019, dated 2022)
